Here are results for one molecule from PMC7699745, “The Search for New Anticonvulsants in a Group of (2,5-Dioxopyrrolidin-1-yl)(phenyl)Acetamides with Hybrid Structure—Synthesis and In Vivo/In Vitro Studies” (International Journal of Molecular Sciences, 2020).

The target of series [1] is T1, Cav1.2 (h) calcium ion channel (Homo sapiens, UniProt Q13936).
T1 construct: host or cells: HEK-293
The series is described as follows: Cav1.2 (h) cell-based antagonist calcium flux assay. The method, then:
Binding studies were carried out commercially in Eurofines Laboratories (Poitiers, France). The functional assays were performed in Eurofins Panlabs Discovery Services Taiwan, Ltd. (New Taipei City, Taiwan). All procedures are described elsewhere (for details, see Table S4 in Supplementary Materials).
Binding studies were carried out commercially in Eurofines Laboratories (Poitiers, France). The
functional assays were performed in Eurofins Panlabs Discovery Services Taiwan, Ltd. (New Taipei
City, Taiwan). All procedures are described elsewhere (Table S4).
Table S4. In vitro binding and functional assays. […]
Cav1.2 (h) calcium ion channel cell based antagonist calcium flux assay 16,17
(In general: Calcium flux is commonly read through the fluorescence of an indicator in the cells.)

For another series, the target named is T2, CYP3A4 (Homo sapiens, UniProt P08684).
T2 construct: purchased Promega (Madison, WI, USA)
The series can be described thus: Luminescent CYP3A4 P450-Glo assay. Format: in vitro ADME. As to conditions: 1 µM.

For series [2], the system named is tactile allodynia in OXPT-treated mice. The series can be described thus: Oxaliplatin (OXPT)-induced peripheral neuropathy, von Frey test. The series is classed as in vivo. On the procedure: In order to investigate the analgesic activity of the most promising compound 30 in a neuropathic pain model, we tested it in oxaliplatin (OXPT)-induced peripheral neuropathy, in which mechanical and cold allodynia result from impaired function of ion channels, among others. The early phase of neuropathic pain appears hours after OXPT administration, while the late phase develops days after OXPT. Thus, we tested compound 30 3 h and 7 days after the injection of OXPT. We investigated the influence of compound 30 on tactile allodynia using the von Frey method. Three hours after the administration of OXPT we observed a significant decrease in the mean value of force that caused paw withdrawal reaction (1.89 ± 0.04 g) (64.2% of the baseline) compared to nontreated animals (2.94 ± 0.06 g) (the baseline). Seven days after OXPT administration, the pain threshold was 2.00 ± 0.03 (68.0% of the baseline). […] In the late phase, the values of pain threshold were as follows 2.18 ± 0.06 g, 2.60 ± 0.08 g, and 2.91 ± 0.05 g, which correspond to 74.1%, 88.4%, and 98.9% of the baseline value.
The experimental groups consisted of 6–12 adult male Albino Swiss mice (CD-1, 18–25 g). Each animal was tested only once. Immediately after the assay, the animals were sacrificed by cervical dislocation. Behavioral measurements were observed by trained observers. The in vivo antinociceptive assays were in accordance with Polish regulations and European Union Directive of 22 September 2010 (2010/63/EU). All procedures were carried out according to the rules of the International Council on Laboratory Animal Science (ICLAS) and were approved by the Local Ethical Committee in Cracow, Poland (approval No 104/2015, 111/2016, and 179/2017). The tested substances were suspended in 1% aqueous solution of Tween-80 and were injected i.p. 30 min prior to the test. Control group animals (negative control) were administered with an appropriate amount of vehicle (Tween-80, 1% aqueous solution, i.p.) 30 min prior to the test.
The experimental in vivo procedures were previously reported for the formalin test; compounds 4 and 30 were tested in three doses—40, 80, 120 mg/kg (4), and 20, 40, 80 mg/kg (30). Before formalin application, different groups of animals were injected i.p. with vehicle (10 mL/kg, negative control). The in vivo procedure for the model of capsaicin-induced nociception was previously reported; the animals were pretreated with vehicle (10 mL/kg, negative control) and the dose–response of investigated compounds was evaluated at 40, 80, 120 mg/kg (4), and 20, 40, 80 mg/kg (30). The in vivo procedure for the model of OXPT-induced peripheral neuropathy was previously reported; the mice with developed tactile allodynia were pretreated i.p. with test compound 30 (20, 40, and 80 mg/kg) and vehicle.
Data are presented as means ± standard error of the mean (SEM). The GraphPad Prism Software (v.5) was used to analyze the vast majority of data. Statistically significant differences between groups were calculated using one-way analysis of variance (ANOVA) and the post hoc Dunnett’s multiple comparison test or two-way analysis of variance (ANOVA). The criterion for significance was set at p < 0.05.

The mark [3] stands for this setting: early phase (3 h after OXPT), 20 mg/kg i.p.
Where [4] appears, read: early phase (3 h after OXPT), 40 mg/kg i.p.
[5] abbreviates: early phase (3 h after OXPT), 80 mg/kg i.p.
[6] abbreviates: late phase (7 days after OXPT), 20 mg/kg i.p.
Where [7] appears, read: late phase (7 days after OXPT), 40 mg/kg i.p.
The mark [8] stands for this setting: late phase (7 days after OXPT), 80 mg/kg i.p.

T1 sequence (Q13936 whole entry): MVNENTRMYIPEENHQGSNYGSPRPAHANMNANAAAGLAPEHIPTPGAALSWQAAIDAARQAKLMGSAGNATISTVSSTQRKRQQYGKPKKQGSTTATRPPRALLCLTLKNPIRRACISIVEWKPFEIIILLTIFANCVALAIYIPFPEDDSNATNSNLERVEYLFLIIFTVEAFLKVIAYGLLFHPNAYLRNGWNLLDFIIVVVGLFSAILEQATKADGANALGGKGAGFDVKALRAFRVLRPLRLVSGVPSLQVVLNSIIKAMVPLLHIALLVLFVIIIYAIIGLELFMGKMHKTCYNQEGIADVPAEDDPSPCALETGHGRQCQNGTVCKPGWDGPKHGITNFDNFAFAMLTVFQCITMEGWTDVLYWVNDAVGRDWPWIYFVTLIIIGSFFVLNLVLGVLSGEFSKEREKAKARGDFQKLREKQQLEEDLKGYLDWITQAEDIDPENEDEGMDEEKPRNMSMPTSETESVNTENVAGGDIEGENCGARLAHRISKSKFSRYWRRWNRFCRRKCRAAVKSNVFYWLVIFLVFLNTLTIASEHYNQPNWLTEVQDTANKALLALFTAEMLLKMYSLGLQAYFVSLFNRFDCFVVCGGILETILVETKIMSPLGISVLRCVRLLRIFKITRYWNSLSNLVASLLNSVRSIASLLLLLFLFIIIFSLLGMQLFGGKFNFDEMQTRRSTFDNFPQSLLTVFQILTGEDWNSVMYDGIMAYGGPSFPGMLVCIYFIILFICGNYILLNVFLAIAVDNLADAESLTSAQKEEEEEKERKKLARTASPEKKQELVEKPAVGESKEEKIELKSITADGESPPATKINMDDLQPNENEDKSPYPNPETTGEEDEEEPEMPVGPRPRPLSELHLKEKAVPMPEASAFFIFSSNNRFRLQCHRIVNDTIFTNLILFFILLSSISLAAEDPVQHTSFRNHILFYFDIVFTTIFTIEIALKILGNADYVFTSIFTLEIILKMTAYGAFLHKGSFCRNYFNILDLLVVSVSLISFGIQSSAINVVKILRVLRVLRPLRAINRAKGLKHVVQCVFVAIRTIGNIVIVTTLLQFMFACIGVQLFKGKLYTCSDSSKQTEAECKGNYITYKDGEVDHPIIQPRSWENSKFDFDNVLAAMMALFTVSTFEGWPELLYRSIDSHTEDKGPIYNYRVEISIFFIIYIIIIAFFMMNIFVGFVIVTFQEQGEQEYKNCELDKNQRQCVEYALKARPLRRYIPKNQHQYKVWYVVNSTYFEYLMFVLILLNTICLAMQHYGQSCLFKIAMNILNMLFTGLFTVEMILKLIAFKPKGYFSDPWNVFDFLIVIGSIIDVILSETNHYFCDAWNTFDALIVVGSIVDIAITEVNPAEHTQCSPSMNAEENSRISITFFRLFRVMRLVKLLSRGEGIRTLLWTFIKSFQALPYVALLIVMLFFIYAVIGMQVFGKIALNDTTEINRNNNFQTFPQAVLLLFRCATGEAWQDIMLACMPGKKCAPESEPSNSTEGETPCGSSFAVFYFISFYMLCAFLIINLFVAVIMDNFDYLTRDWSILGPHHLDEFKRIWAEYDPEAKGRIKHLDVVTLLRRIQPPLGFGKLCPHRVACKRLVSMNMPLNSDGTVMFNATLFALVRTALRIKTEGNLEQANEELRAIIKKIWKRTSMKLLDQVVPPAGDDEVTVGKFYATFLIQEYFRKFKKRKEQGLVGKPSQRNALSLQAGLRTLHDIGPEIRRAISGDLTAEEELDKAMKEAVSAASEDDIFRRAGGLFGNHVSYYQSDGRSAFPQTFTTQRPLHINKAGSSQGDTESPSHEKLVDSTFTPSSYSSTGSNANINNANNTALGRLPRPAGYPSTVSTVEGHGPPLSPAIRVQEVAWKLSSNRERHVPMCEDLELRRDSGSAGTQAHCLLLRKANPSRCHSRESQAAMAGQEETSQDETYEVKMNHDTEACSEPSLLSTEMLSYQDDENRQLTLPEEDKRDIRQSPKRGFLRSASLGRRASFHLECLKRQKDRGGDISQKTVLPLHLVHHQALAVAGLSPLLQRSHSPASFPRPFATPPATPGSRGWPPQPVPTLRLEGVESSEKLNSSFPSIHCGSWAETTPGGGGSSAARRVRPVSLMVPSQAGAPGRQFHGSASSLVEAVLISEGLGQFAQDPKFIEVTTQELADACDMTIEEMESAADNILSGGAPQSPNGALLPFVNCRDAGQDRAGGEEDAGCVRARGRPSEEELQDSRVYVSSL
T1 sequence (Q08289 whole entry partner): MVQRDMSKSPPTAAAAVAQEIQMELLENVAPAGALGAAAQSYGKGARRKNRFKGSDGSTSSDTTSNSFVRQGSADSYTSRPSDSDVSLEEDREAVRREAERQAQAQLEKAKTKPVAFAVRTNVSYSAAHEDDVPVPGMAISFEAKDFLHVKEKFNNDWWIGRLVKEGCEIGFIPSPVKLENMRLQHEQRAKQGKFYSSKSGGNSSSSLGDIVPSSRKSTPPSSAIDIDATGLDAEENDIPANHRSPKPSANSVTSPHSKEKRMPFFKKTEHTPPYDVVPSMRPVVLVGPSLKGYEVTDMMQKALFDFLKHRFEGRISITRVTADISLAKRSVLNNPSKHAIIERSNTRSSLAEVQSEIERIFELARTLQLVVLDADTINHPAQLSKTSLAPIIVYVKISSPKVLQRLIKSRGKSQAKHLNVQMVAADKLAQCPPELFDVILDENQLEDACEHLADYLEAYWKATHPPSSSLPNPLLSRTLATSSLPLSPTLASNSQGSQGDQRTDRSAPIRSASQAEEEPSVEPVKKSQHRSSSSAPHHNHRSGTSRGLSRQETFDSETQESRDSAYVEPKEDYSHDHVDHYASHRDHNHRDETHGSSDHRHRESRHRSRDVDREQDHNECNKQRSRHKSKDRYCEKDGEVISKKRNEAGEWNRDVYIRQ
T1 sequence (P54289 25-956 partner limits assumed): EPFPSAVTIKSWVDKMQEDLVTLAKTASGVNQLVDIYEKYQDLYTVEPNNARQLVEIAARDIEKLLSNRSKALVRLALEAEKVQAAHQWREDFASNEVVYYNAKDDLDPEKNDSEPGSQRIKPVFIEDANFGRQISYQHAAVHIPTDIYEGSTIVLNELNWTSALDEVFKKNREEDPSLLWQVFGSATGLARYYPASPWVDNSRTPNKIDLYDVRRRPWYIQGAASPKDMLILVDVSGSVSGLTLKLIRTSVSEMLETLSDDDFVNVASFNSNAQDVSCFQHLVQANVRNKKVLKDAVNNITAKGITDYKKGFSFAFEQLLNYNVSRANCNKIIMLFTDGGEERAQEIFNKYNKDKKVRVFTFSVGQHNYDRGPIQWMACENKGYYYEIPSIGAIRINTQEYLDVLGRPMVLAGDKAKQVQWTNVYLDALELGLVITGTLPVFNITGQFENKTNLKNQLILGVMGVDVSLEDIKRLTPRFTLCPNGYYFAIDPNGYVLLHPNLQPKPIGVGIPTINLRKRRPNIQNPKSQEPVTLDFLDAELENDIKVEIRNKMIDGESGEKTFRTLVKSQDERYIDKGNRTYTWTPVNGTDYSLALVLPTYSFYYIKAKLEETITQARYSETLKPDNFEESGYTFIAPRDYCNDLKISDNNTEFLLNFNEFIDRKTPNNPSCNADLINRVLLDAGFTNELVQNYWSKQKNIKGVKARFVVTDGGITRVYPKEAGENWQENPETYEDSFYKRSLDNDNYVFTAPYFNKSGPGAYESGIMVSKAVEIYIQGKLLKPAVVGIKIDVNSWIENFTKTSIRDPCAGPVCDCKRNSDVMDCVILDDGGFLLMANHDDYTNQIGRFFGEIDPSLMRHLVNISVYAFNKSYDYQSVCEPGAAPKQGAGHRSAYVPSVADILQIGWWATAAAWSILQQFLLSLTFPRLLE
T1 sequence (P54289 957-1103 partner limits assumed): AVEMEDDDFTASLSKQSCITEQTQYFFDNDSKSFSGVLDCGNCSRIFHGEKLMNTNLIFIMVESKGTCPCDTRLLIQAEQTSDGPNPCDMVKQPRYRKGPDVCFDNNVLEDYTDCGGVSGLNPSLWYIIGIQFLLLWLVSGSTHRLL
T2 sequence (P08684 whole entry): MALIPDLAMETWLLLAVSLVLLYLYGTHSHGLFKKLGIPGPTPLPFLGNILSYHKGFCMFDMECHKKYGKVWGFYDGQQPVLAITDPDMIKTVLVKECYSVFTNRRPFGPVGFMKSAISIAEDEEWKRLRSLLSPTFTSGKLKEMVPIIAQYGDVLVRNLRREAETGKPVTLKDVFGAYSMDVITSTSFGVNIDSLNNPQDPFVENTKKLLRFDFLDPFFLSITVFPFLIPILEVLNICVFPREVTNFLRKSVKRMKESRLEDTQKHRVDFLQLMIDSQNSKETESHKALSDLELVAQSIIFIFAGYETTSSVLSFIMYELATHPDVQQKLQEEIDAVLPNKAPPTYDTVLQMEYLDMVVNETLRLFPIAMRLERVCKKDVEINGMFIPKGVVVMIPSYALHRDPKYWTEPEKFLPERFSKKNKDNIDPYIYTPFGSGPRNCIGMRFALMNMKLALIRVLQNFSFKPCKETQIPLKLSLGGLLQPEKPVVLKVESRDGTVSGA

A word on the inhibition: it is the change of the read-out against control, counted positive when it falls. In the case of `O=C(NCCc1cccc(OC(F)(F)F)c1)C(c1ccccc1)N1C(=O)CCC1=O` (stereo not drawn) [Compound 30, 2-(2,5-Dioxopyrrolidin-1-yl)-2-phenyl-N-(3-(trifluoromethoxy)phenethyl)acetamide], the “antagonist properties in cell-based flux studies (Cav1.2)” value in series [1] (10 µM) is reported as “moderate antagonist properties”. The inhibition at 10 µM in series [1] (HEK293, human recombinant (HEK-293 cells), read-out: % Inhibition of Control Agonist Response, Cav1.2 (h) calcium flux) is 49%. Besides, the “effect on CYP3A4 activity” value on CYP3A4 was “slightly inhibited CYP3A4 activity”. The entries for the “pain sensitivity threshold (von Frey, force causing paw withdrawal)” value in series [2] (setting [3]), in series [2] (setting [4]) and in series [2] (setting [5]) were 2.26 ± 0.08 g, 2.49 ± 0.05 g and 2.97 ± 0.05 g, respectively. The “pain threshold, % of the baseline value” came to 76.8% in series [2] (setting [3]); 84.7% in series [2] (setting [4]); 101.0% in series [2] (setting [5]); 74.1% in series [2] (setting [6]); 88.4% in series [2] (setting [7]); 98.9% in series [2] (setting [8]). Besides, the figures for the “pain threshold (von Frey)” value in series [2] (setting [6]), in series [2] (setting [7]) and in series [2] (setting [8]) were 2.18 ± 0.06 g, 2.60 ± 0.08 g and 2.91 ± 0.05 g, respectively.
